Key:
[1] = biological target: T1, hCD22 (Homo sapiens, UniProt P20273); assay: Competition ELISA; assay type: binding
T1 sequence (P20273 20-326 limits assumed): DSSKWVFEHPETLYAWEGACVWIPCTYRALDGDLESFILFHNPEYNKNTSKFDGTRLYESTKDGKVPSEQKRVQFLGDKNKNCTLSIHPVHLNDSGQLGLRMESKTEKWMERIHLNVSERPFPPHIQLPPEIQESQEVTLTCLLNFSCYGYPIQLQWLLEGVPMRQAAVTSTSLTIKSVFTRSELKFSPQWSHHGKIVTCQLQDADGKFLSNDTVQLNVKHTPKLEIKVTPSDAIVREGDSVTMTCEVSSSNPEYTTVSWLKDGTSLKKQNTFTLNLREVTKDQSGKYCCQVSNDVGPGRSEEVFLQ

[2] = biological target: mCD22 (Mus musculus, UniProt P35329); assay: Competition ELISA with biotinylated form of 1, mCD22Fc; assay type: binding, murine

Structure (SMILES)	IC50 [1] [nM]	fold less potent than 5 for CD22 [2] [fold]
O=C(CO)N[C@H]1[C@H]([C@H](O)[C@H](O)CNCc2ccc(-c3ccc(O)cc3)cc2)O[C@@](OCc2ccc(-c3ccccc3)cc2)(C(=O)O)C[C@@H]1O [Compound 9, (4-Biphenyl)methyl 3,5,9-trideoxy-5-glycolamido-9-(4′-hydroxy-4-biphenyl) methylamino-D-glycero-α-D-galacto-2-nonulopyranosidonic acid]	2240 ± 280	
O=C(Cc1ccc(-c2ccc(O)cc2)cc1)NC[C@@H](O)[C@@H](O)[C@@H]1O[C@@](OCc2ccc(-c3ccccc3)cc2)(C(=O)O)C[C@H](O)[C@H]1NC(=O)CO [Compound 6]	380	
O=C(CO)N[C@H]1[C@H]([C@H](O)[C@H](O)CNCc2ccc(-c3ccc(O)cc3)cc2)O[C@@](OCc2ccccc2)(C(=O)O)C[C@@H]1O [Compound 8, Benzyl 3,5,9-trideoxy-5-glycolamido-9-(4′-hydroxy-4-biphenyl)methylamino-D-glycero-α-D-galacto-2-nonulopyranosidonic acid]	2750 ± 1300	
O=C(Cc1ccc(-c2ccc(F)cc2)cc1)NC[C@@H](O)[C@@H](O)[C@@H]1O[C@@](OCc2ccccc2)(C(=O)O)C[C@H](O)[C@H]1NC(=O)CO [Compound 7, Benzyl 3,5,9-trideoxy-5-glycolamido-9-(4′-fluoro-4-biphenyl)acetamido-D-glycero-α-D-galacto-2-nonulopyranosidonic acid]		50
O=C(Cc1ccc(-c2ccc(O)cc2)cc1)NC[C@@H](O)[C@@H](O)[C@@H]1O[C@@](OCc2ccccc2)(C(=O)O)C[C@H](O)[C@H]1NC(=O)CO [Compound 5, benzyl 3,5,9-trideoxy-5-glycolamido-9-(4′-hydroxy-4-biphenyl)acetamido-D-glycero-α-D-galacto-2-nonulopyranosidonic acid]	240 ± 50	
COc1ccc(O[C@@H]2O[C@H](CO[C@]3(C(=O)O)C[C@H](O)[C@@H](NC(=O)CO)[C@H]([C@H](O)[C@H](O)CNCc4ccc(-c5ccc(O)cc5)cc4)O3)[C@H](O)[C@H](O)[C@H]2O)cc1 [Compound 2, 9-(4'-hydroxy-4-biphenyl)methylamino-9-deoxy-Neu5Gcα2-6GalOMP, reference compound]	3290 ± 330	
COc1ccc(O[C@@H]2O[C@H](CO[C@]3(C(=O)O)C[C@H](O)[C@@H](NC(=O)CO)[C@H]([C@H](O)[C@H](O)CNC(=O)Cc4ccc(-c5ccc(O)cc5)cc4)O3)[C@H](O)[C@H](O)[C@H]2O)cc1 [Compound 1, 9-(4'-hydroxy-4-biphenyl)acetamido-9-deoxy-Neu5Gcα2-6GalOMP, reference compound]	3270 ± 620	
